Measured values from patent US20040225014A1, “Method for treating ocular hypertension and glaucoma” (SUCAMPO AG, priority 2003, published 2004).
Where two headings read alike, the source gives them in different places. Each block holds one compound with its values, some of them ahead of it.

Experiments:
eyelashes = conditions: marketed eye drops for ocular hypertension and glaucoma; cited from earlier work
Male C3H/HeN mice [1] = conditions: mouse, in vivo
Text: (§1) Male C3H/HeN mice of 7 weeks old (seven groups; three mice/group) were used. Following 1-week acclimation, hair on the back of mice was shaved. Two days after the shaving, applications of test compound (13,14-dihydro-15-keto-17-phenyl-18,19,20-trinor-PGF2α isopropyl ester), latanoprost(13,14-dihydro-17-phenyl-18,19,20-trinor-PGF2α isopropyl ester), and vehicle (70 w/w % EtOH) were initiated (Day 1). 0.005%, 0.01% or 0.03% of test compound, 0.005%, 0.01% or 0.03% of latanoprost, or vehicle were applied to the shaved area of the mice at a volume of 0.1 mL once daily for 30 days. The hair growth was scored according to the following criteria.
−: No hair growth observed
(§2) ±: Hair growth observed; less than 10% of shaving area
(§3) +: Hair growth observed; 10-30% of shaving area
(§4) ++: Hair growth observed; 30-50% of shaving area
(§5) +++: Hair growth observed; more than 50% of shaving area

Male C3H/HeN mice [2] = assay: Hair growth scoring after once daily topical application to the shaved back of mice for 30 days; conditions: for Scores of hair growth: 0.1 mL once daily on shaved area, individual animals
Text: as §1
−: No hair growth observed
as §2, §3, §4, §5

Effect on the hair growth (summary in words) (Male C3H/HeN mice [1]): remarkable hair growth stimulation
Scores of hair growth (Male C3H/HeN mice [1]): −
SMILES: CC(C)OC(=O)CCC/C=C\C[C@@H]1[C@@H](CC[C@@H](O)CCc2ccccc2)[C@H](O)C[C@@H]1O [Latanoprost, 13,14-dihydro-17-phenyl-18,19,20-trinor-PGF2α isopropyl ester]
Eyelash hair growth (side effect of eye drops) (eyelashes): induce eyelash hair growth

SMILES: CCCCCCCC(=O)CC[C@@H]1[C@@H](C/C=C\CCCC(=O)OC(C)C)[C@@H](O)C[C@H]1O [Rescula®, 13,14-dihydro-15-keto-20-ethyl-PGF2α isopropylester]
Eyelash hair growth (side effect of eye drops) (eyelashes): increases length of eyelashes

Scores of hair growth (Male C3H/HeN mice [2]; 0.005%, 19 days after first application): −
Scores of hair growth (Male C3H/HeN mice [2]; 0.005%, 22 days after first application): −
Scores of hair growth (Male C3H/HeN mice [2]; 0.005%, 23 days after first application): −
Scores of hair growth (Male C3H/HeN mice [2]; 0.005%, 24 days after first application): −
Scores of hair growth (Male C3H/HeN mice [2]; 0.005%, 25 days after first application): −
Scores of hair growth (Male C3H/HeN mice [2]; 0.005%, 26 days after first application): −
Scores of hair growth (Male C3H/HeN mice [2]; 0.005%, 29 days after first application): −
Scores of hair growth (Male C3H/HeN mice [2]; 0.005%, 30 days after first application): −
Scores of hair growth (Male C3H/HeN mice [2]; 0.01%, 19 days after first application): −
Scores of hair growth (Male C3H/HeN mice [2]; 0.01%, 22 days after first application): −
Scores of hair growth (Male C3H/HeN mice [2]; 0.01%, 23 days after first application): −
Scores of hair growth (Male C3H/HeN mice [2]; 0.01%, 24 days after first application): −
Scores of hair growth (Male C3H/HeN mice [2]; 0.01%, 25 days after first application): −
Scores of hair growth (Male C3H/HeN mice [2]; 0.01%, 26 days after first application): −
Scores of hair growth (Male C3H/HeN mice [2]; 0.01%, 29 days after first application): −
Scores of hair growth (Male C3H/HeN mice [2]; 0.01%, 30 days after first application): −
Scores of hair growth (Male C3H/HeN mice [2]; 0.03%, 19 days after first application): −
Scores of hair growth (Male C3H/HeN mice [2]; 0.03%, 22 days after first application): −
Scores of hair growth (Male C3H/HeN mice [2]; 0.03%, 23 days after first application): −
Scores of hair growth (Male C3H/HeN mice [2]; 0.03%, 24 days after first application): −
Scores of hair growth (Male C3H/HeN mice [2]; 0.03%, 25 days after first application): −
Scores of hair growth (Male C3H/HeN mice [2]; 0.03%, 26 days after first application): −
Scores of hair growth (Male C3H/HeN mice [2]; 0.03%, 29 days after first application): −
Scores of hair growth (Male C3H/HeN mice [2]; 0.03%, 30 days after first application): −
Effect on the hair growth (summary in words) (Male C3H/HeN mice [2]; any concentration tested (0.005%, 0.01%, 0.03%), once daily for 30 days): no effects on the hair growth
SMILES: CC(C)OC(=O)CCC/C=C\C[C@@H]1[C@@H](CCC(=O)CCc2ccccc2)[C@H](O)C[C@@H]1O [Test compound, 13,14-dihydro-15-keto-17-phenyl-18,19,20-trinor-PGF2α isopropyl ester]

SMILES: CCNC(=O)CCC/C=C\C[C@@H]1[C@@H](/C=C/[C@@H](O)CCc2ccccc2)[C@H](O)C[C@@H]1O [bimatoprost, 17-phenyl 18,19,20-trinor PGF2α-N-ethylamide]
Eyelash hair growth (side effect of eye drops) (eyelashes): induce eyelash hair growth

SMILES: CC(C)OC(=O)CCC/C=C\C[C@@H]1[C@@H](/C=C/[C@@H](O)COc2cccc(C(F)(F)F)c2)[C@H](O)C[C@@H]1O [travoprost, 16-(3-trifluoromethylphenoxy)-17,18,19,20-tetranor PGF2α isopropyl ester]
Eyelash hair growth (side effect of eye drops) (eyelashes): induce eyelash hair growth
